Reference: PMC11088877, “AMP-activated protein kinase can be allosterically activated by ADP but AMP remains the key activating ligand” (Biochemical Journal, 2024)
Several values for one entry are separate records, joined by “and”; a condition that tells them apart may be missing. Equal values may be shown once. Read-outs that look alike come from different tables or passages of the source.

Experiments:
Assay type in all cases: biochemical
[1] = biological target: T1, GST-tagged human α2 kinase domain (Homo sapiens, UniProt P54646); test: Inhibition of GST:α2-kinase domain fusion by AMP or ADP; conditions: for Activation / IC50: α2 kinase domain
T1 construct: Human GST-tagged α2 kinase domain (1–310); made in house
From the text: To confirm that the inhibition of kinase activity by ADP at high concentrations was due to competition with ATP at the catalytic site on the α subunit, we repeated the assays using a glutathione-S-transferase- (GST-) tagged human α2 kinase domain that had been phosphorylated by LKB1. […] These IC50 values were similar to those obtained with the intact heterotrimers from rat liver (Supplementary Table S1).
Figure 3. Inhibition of GST:α2-kinase domain fusion by AMP or ADP. The kinase domain (phosphorylated on Thr172 by the LKB1:STRADα:MO25α complex) was incubated with various concentrations of AMP or ADP as in Figure 1 using [ATP] at 0.2 (A), 1.0 (B) or 5.0 mM (C) and keeping [Mg^2+] in a constant excess of 4.8 mM above [ATP] [19]. Results (mean ± SD, n = 2) were fitted to the equation: Y = Basal-(Basal × X)/(IC50 + X) where Y is the kinase activity, X is the concentration of AMP or ADP, and IC50 is the concentration of AMP or ADP causing half-maximal inhibition. Dashed vertical lines show the estimates of IC50 values, and best-fit values of all parameters used to generate the curves are listed in Supplementary Table S1.
(§1) Sources of antibodies were as described: pThr172 (AMPK-α: Cell Signaling Technologies, Danvers, MA, U.S.A., Cat# 2535), AMPK-α2 [22]. Rat liver AMPK was purified as described previously. Plasmid encoding human (His)6-tagged AMPK (α2β2γ1, bacterially expressed) generated as in [23], was a gift from AstraZeneca, Cambridge, U.K. The L129D/V130D (CBS1), V276G/L277G (CBS3) and I312G (CBS4) mutations in the α2β2γ1 complex were generated using the Quikchange II site-directed mutagenesis kit (Agilent Technologies) and confirmed by DNA sequencing. Human GST-tagged α2 kinase domain (1–310), LKB1:STRAD-α:MO25-α complexes, GST-tagged CaMKK2 [26], and PPM1A (PP2Cα) were produced as described. Bacterially expressed heterotrimers were activated by phosphorylation of Thr172 by GST-tagged CaMKK2 in the presence of ATP, and CaMKK2 was subsequently removed by passage through glutathione-Sepharose. Human GST-tagged α2 kinase domain was activated in a similar manner except that human (His)6-tagged LKB1:STRAD-α:MO25-α complex was used and removed after activation via passage through a His-Trap column. Recombinant human 5′-nucleotidase, CD73, Cat # 5795-EN-01, was from R&D systems (Minneapolis, MN, U.S.A.).
(§2) AMPK assays measured the transfer of radioactivity from [γ-^33P]ATP to a peptide substrate, which was separated from unreacted ATP by binding to P81 paper. This assay was described previously except that we used [γ-^33P] rather than [γ-^32P]ATP. In some assays (specified in Figure legends) the concentration of ATP was increased from 0.2 to 1 or 5 mM ATP, with MgCl2 concentrations maintained at a constant 4.8 mM excess above the concentration of ATP [19]. Where allosteric activation by AMP or ADP was being studied, we used the SAMS peptide as substrate. For all other assays the AMARA peptide was used.

[2] = biological target: T2, human α2β2γ1 complex (WT) (Homo sapiens, UniProt P54619+P54646); test: Allosteric activation of WT human α2β2γ1 AMPK complex by AMP and ADP
T2 construct: made in house; host or cells: Escherichia coli
From the text: (§3) To study allosteric activation with a more well-defined AMPK complex, and to study the effects of mutations in individual adenine nucleotide-binding sites on the γ subunit, we expressed a human α2β2γ1 complex in Escherichia coli and purified it utilizing the polyhistidine tag at the N-terminus of the α2 subunit. […] However, it had not been co-expressed with an N-myristoyl transferase so would not have been N-myristoylated on the β2 subunit. The complex was expressed not only with the WT γ1 sequence but also with mutations affecting hydrophobic residues previously shown to be involved in binding of the adenine moieties of nucleotides at CBS1 (L129D/V130D), CBS3 (V276G/L277G) and CBS4 (I312G). All four complexes co-purified as heterotrimeric 1:1:1 complexes as expected, and were phosphorylated and activated equally well either by CaMKK2 or the LKB1: STRADα:MO25α complex (Supplementary Figure S2). For the studies described below we phosphorylated Thr172 using a GST-tagged CaMKK2 and repurified AMPK using size exclusion chromatography and a glutathione-Sepharose column, which remove CaMKK2.
(§4) Figure 4. Allosteric activation of WT and mutant human α2β2γ1 AMPK complex by AMP and ADP at three different concentrations of ATP. The α2β2γ1 complex was phosphorylated on Thr172 prior to assay using CaMKK2. The γ1 subunit was either (A/E): WT; (B/F): a CBS1 mutant (L129D/V130D); (C/G): a CBS3 mutant (V276G/L277G); (D/H): a CBS4 mutant (I312G). Results are means of duplicate assays ± SD; error bars are not shown if they were smaller than the symbols used for mean values. Assays and curve fitting were as in Figure 1 at either 0.2 mM (left panels) or 5 mM (right panels) ATP. Best-fit values for all parameters used to generate the curves are listed in Supplementary Table S1.
as §1, §2

[3] = biological target: T3, human α2β2γ1 complex, CBS1 mutant (L129D/V130D) (Homo sapiens, UniProt P54619+P54646, L129D/V130D); test: Allosteric activation of CBS1 mutant human α2β2γ1 AMPK complex
T3 construct: made in house; host or cells: Escherichia coli
From the text: as §3, §4, §1, §2

T2 sequence (P54619 whole entry): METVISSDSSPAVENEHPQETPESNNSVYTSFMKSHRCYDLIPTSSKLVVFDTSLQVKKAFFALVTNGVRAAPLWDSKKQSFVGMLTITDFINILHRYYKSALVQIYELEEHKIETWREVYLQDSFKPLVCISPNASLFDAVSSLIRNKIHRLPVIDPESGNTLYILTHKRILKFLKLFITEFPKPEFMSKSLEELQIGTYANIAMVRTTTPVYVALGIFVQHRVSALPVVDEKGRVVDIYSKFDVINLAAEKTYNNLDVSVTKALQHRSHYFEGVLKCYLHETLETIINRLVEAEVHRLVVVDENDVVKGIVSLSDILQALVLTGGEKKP
T2 sequence (P54646 whole entry): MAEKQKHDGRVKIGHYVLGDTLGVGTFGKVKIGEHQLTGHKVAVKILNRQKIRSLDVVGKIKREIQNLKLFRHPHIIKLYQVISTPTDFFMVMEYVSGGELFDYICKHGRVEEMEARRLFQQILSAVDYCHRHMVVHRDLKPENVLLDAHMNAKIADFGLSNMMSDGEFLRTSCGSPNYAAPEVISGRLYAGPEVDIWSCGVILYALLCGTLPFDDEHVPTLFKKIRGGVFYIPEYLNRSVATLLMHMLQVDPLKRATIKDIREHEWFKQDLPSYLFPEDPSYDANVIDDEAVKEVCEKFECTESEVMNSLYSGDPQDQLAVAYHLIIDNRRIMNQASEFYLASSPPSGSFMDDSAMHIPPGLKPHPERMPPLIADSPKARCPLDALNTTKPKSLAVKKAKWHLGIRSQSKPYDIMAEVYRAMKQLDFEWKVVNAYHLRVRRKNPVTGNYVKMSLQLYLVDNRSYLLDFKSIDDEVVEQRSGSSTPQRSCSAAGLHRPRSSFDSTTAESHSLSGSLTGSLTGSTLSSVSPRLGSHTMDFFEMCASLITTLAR
T2 sequence (O43741 whole entry partner): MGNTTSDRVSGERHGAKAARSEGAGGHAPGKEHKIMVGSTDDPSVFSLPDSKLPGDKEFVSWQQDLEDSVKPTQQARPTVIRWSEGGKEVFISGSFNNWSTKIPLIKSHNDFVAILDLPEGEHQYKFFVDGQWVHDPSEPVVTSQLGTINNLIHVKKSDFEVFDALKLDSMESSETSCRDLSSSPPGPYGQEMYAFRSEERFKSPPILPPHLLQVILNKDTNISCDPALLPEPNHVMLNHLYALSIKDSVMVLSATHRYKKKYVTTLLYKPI
T1 sequence (P54646 1-310): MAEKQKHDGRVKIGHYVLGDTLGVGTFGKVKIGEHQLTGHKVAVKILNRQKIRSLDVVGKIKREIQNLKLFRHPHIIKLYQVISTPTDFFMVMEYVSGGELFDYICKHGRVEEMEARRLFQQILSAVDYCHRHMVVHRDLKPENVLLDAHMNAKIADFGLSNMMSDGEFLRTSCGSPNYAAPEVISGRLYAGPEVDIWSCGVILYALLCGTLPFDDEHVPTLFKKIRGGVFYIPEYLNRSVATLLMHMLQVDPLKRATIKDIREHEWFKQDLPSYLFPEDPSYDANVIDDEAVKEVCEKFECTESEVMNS
T3 sequence (P54619 whole entry L129D/V130D): as the sequence (P54619 whole entry) above, with L129D, V130D counted along it
T3 sequence (P54646 whole entry): as the sequence (P54646 whole entry) above
T3 sequence (O43741 whole entry partner): as the sequence (O43741 whole entry partner) above

In the case of `Nc1ncnc2c1ncn2[C@@H]1O[C@H](COP(=O)(O)O)[C@@H](O)[C@H]1O` [AMP], the “IC50 of AMP relative to IC50 of ADP” value ([1]; GST-α2 kinase domain, 0.2 to 5 mM ATP) is reported as roughly 3 fold, the Activation ([1]; 0.2 mM ATP) is reported as “none” and the IC50 ([1]; 0.2 mM ATP) is reported as 2200 µM. For the same molecule, the Activation ([1]; 1.0 mM ATP) was “none”, the IC50 ([1]; 1.0 mM ATP) was 5400 µM and the Activation ([1]; 5.0 mM ATP) was “none”. The IC50 ([1]; 5.0 mM ATP) was 13000 µM and 13400 µM, the “Activation (maximal)” value ([2]; 0.2 mM ATP) was 2.6 fold and 2.6 (2.5-2.6) fold and the IC50 ([2]; 0.2 mM ATP) was 2600 µM. The IC50/EC50 ([2]; 0.2 mM ATP) was 2600, the EC50 ([2]; 0.2 mM ATP, read-out: EC50) was 0.99 µM and 1 µM and the “Activation (extrapolated maximal)” value ([2]; 5.0 mM ATP) was 3.0 fold and 3.0 (2.9-3.1) fold. For the same molecule, the IC50 ([2]; 5.0 mM ATP) was 52000 µM, the IC50/EC50 ([2]; 5.0 mM ATP) was 2700 and the EC50 ([2]; 5.0 mM ATP, read-out: EC50) was 19 µM. The “Activation (maximal)” value ([3]; 0.2 mM ATP) was 2.4 (2.3-2.4) fold, the EC50 ([3]; 0.2 mM ATP) was 1.6 µM and the IC50 ([3]; 0.2 mM ATP) was 3400 µM. For the same molecule, the IC50/EC50 ([3]; 0.2 mM ATP) was 2100, the “Activation (maximal)” value ([3]; 5.0 mM ATP) was 2.4 fold and 2.3 fold and the EC50 ([3]; 5.0 mM ATP) was 19 µM. For the same molecule, the IC50 ([3]; 5.0 mM ATP) was 52000 µM and the IC50/EC50 ([3]; 5.0 mM ATP) was 2700.
For `Nc1ncnc2c1ncn2[C@@H]1O[C@H](COP(=O)(O)OP(=O)(O)O)[C@@H](O)[C@H]1O` [ADP], the Activation ([1]; 0.2 mM ATP) was “none”, the IC50 ([1]; 0.2 mM ATP) was 670 µM and the Activation ([1]; 1.0 mM ATP) was “none”. The IC50 ([1]; 1.0 mM ATP) was 1600 µM, the Activation ([1]; 5.0 mM ATP) was “none” and the IC50 ([1]; 5.0 mM ATP) was 3500 µM. For the same molecule, the “Activation (maximal)” value ([2]; 0.2 mM ATP) was “did not cause allosteric activation and none”, the IC50 ([2]; 0.2 mM ATP) was 2600 µM and the “maximal activation actually reached” value ([2]; 5 mM ATP) was 1.6 fold. For the same molecule, the “Activation (extrapolated maximal)” value ([2]; 5.0 mM ATP) was 9.9 fold and 9.9 (2.8 -??) fold, the IC50 ([2]; 5.0 mM ATP) was 1200 µM and the IC50/EC50 ([2]; 5.0 mM ATP) was 1.5. For the same molecule, the EC50 ([2]; 5.0 mM ATP, read-out: EC50) was 785 µM, the EC50 ([2]; 5 mM ATP, read-out: EC50 for activation) was 780 µM and 800 µM and the “Activation (maximal)” value ([3]; 0.2 mM ATP) was “did not cause allosteric activation and none”. The IC50 ([3]; 0.2 mM ATP) was 1000 µM and the “Activation (maximal)” value ([3]; 5.0 mM ATP) was “abolished allosteric activation and essentially abolished allosteric activation and none”.
